A short description of one data set: in vitro. As to conditions: mouse, Mean CC50 ± SD, +Irr. As to the method: (§1) An in vitro BALB 3T3 Neutral Red Uptake assay was used to determine the cytotoxicity/phototoxicity of the peptides. Cytotoxicity of peptide analogs was calculated as a percentage relative to the negative control. […] Photo irritation factor (PIF) was used to assess the phototoxic potential of the peptide analogs. The PIF factor represents the ratio between the CC50 values of dark (non-irradiated or—Irr) and irradiated (+Irr) microplates, PIF = (CC50 − Irr)/(CC50 + Irr).
(§2) Mouse embryonic fibroblasts (BALB 3T3) were used to perform the cytotoxicity and phototoxicity tests. The tests were performed by OECD Guidelines for the Testing of Chemicals, Section 4, Test No. 432. Cells were plated at 1 × 10^4 cells/well in 96-well plates. Cells were incubated in a thermostat for 24 h. Then, the test peptides were added at various working concentrations (4–1000 μM). In the phototoxicity test, 96-well plates were irradiated with a dose of 2.4 J/cm^2 using a solar light simulator Helios-iO (SERIC Ltd., Tokyo, Japan). Cell viability was measured using the BALB 3T3 neutral red uptake test. Cytotoxicity is presented as % relative to the negative control.

Another data set concerns BALB 3T3 cells. The experiment in a line: in vitro. As to the method: as §1, §2
In the next data set the test system is MCF-12F. The experiment in a line: cells. As to conditions: 72 h. As to the method:
(§3) The peptides were studied for antiproliferative activity with an MTT-dye reduction assay. Cell cultures were incubated with the test peptides in twofold increasing concentrations (from 2 to 500 μM) for 72 h.
(§4) The antiproliferative activity of the peptides was determined in normal epithelial cells (MCF-12F) and tumor cells (MCF-7 and MDA-MB-231) by MTT-assay. Cells were plated 1 × 10^3 cells/100 µL/well of 96-well plates and incubated in a thermostat under standard conditions for 24 h. Cells were then incubated with the tested peptide analogs for 72 h in different concentrations (from 2 to 500 µM). The optical density of the formazan was measured at λ = 540 nm using a microplate reader. Antiproliferative activity was expressed as % from negative control. […] The statistical analysis of the results was performed using one-way ANOVA followed by Bonferroni’s post hoc test by GraphPad Prism 8 software (San Diego, CA, USA).

In a further data set the test system is MCF-7. The experiment in a line: cells. As to the method:
as §3, §4

The next data set relates to MDA-MB-231. The experiment in a line: cells. As to the method:
as §3, §4

Data set [1] relates to Bacillus subtilis NBIMCC 3562. Conditions: NBIMCC 3562, 24 h. As to the method:
(§5) The antimicrobial activity of the 7 new analogs of aurein 1.2 was evaluated by determining the MIC and MBC against Gram-positive strain Bacillus subtilis 3562 and Gram-negative strain Escherichia coli K12 407. The MIC of the newly synthesized analogs was assessed by applying a broth microdilution method, whereas their MBC was determined by using a spread plate method. All experiments were performed in triplicate.
(§6) Bacillus subtilis NBIMCC 3562 and Escherichia coli NBIMCC K12 407 were used as test microorganisms and were purchased from the National Bank for Industrial Microorganisms and Cell Cultures (NBIMCC, Sofia, Bulgaria). Exponential cultures were obtained in Nutrient broth (NB, HiMedia, Mumbai, India) for B. subtilis NBIMCC 3562 and Luria-Bertani (LB, HiMedia, Mumbai, India) for E. coli NBIMCC K12 407, after cultivation in an incubator shaker ES-20/60 (Biosan, Latvia) at 30/37 °C for 24 h. Then, the turbidity of the microbial cultures was adjusted to the 0.5 McFarland standard using a Grant Bio DEN-1B Densitometer (Grant Instruments, Royston, UK).
(§7) The antimicrobial activity of the obtained aurein 1.2 analogs was evaluated using the broth microdilution method, recommended by the Clinical and Laboratory Standards Institute (CLSI), to determine the minimum inhibitory concentration (MIC) of the peptides against B. subtilis NBIMCC 3562 and E. coli NBIMCC K12 407. All peptides were previously dissolved in 10% EtOH/H2O, and their 10 mg/mL stock solutions were stored at −20 °C. Bacterial cultures, previously adjusted to 0.5 McFarland standard, were incubated in the presence of different peptide concentrations (0–320 µg/mL) in 96-well polystyrene microplates (Deltalab S.L., Barcelona, Spain) at 30/37 °C for 24 h. The lowest concentration of each peptide, which inhibited bacterial growth, was considered as MIC. In addition, a drop of 20 µL of the 24 h inhibitory concentration test samples was spotted on the corresponding solid media to determine the minimum bactericidal concentration (MBC). […] All experiments were performed in triplicate.

The subject of data set [2] is Escherichia coli NBIMCC K12 407. Conditions: K12, 24 h. As to the method:
as §5, §6, §7

Where [3] appears, read: SI = IC50 (normal cells)/IC50 (tumor cells), normal cells MCF-12F.

Each structure is given as a SMILES string. Converted amounts (≈) assume the structure as drawn. Like-named read-outs stand apart in the source and are kept apart here. Where a SMILES comes first, the peptide text is derived from it. [ ]: non-standard residue; d: D form. Dab = NCC[C@H](N)C(=O)O

The compound `CN(C)CCCN1c2ccccc2Sc2ccc(Cl)cc21` [Chlorpromazine, reference compound] gave a CC50 in the data set “in vitro” of 2.04 ± 0.07 µM. Besides, the “PIF (Photo Irritation Factor)” value in the data set with BALB 3T3 cells (mouse) is recorded as 6.06.

With `COc1cccc2c1C(=O)c1c(O)c3c(c(O)c1C2=O)C[C@@](O)(C(=O)CO)C[C@@H]3O[C@H]1C[C@H](N)[C@H](O)[C@H](C)O1` [Doxorubicin, reference compound], the IC50 worked out at 0.601 ± 0.059 µM in the data set on MCF-12F (Homo sapiens, read-out: Mean IC50 ± SD, MCF-12F); 0.68 ± 0.031 µM with MCF-7 (Homo sapiens, MCF7, 72 h, read-out: Mean IC50 ± SD, MCF-7); 2.53 ± 0.11 µM in the data set with MDA-MB-231 (Homo sapiens, MDA-MB-231, 72 h, read-out: Mean IC50 ± SD, MDA-MB-231). Also, in the data set on MCF-7 (setting [3]), the “SI, MCF-7” value came out at 0.88. In addition, the “SI, MDA-MB-231” value in the data set with MDA-MB-231 (setting [3]) is 0.237.

For the compound `CC[C@H](C)[C@H](NC(=O)[C@H](CCN)NC(=O)[C@H](CCN)NC(=O)[C@@H](NC(=O)[C@@H](NC(=O)[C@H](CC(=O)O)NC(=O)[C@H](Cc1ccccc1)NC(=O)[C@H](CC(C)C)NC(=O)CN)[C@@H](C)CC)[C@@H](C)CC)C(=O)N[C@@H](C)C(=O)N[C@@H](CCC(=O)O)C(=O)N[C@@H](CO)C(=O)N[C@@H](Cc1ccccc1)C(N)=O` [EH [Dab]^7,8, Gly-Leu-Phe-Asp-Ile-Ile-Dab^7-Dab^8-Ile-Ala-Glu-Ser-Phe-NH2] (H-GLFDII[Dab][Dab]IAESF-NH2), the CC50 in the data set “in vitro” was 181.1 ± 1.81 µM. The “PIF (Photo Irritation Factor)” value with BALB 3T3 cells turned out to be 1.11. For the same compound, in the data set with BALB 3T3 cells (BALB 3T3 cells, fold lower toxicity), the “Toxicity compared to the parent peptide aurein 1.2” value is “two to four times lower toxicity”. Further, the IC50 in the data set with MCF-12F amounted to 168 ± 2.54 µM; with MCF-7 (72 h), 92.2 ± 1.8 µM; with MDA-MB-231 (72 h), 164 ± 2.51 µM. The “MIC, Bacillus subtilis NBIMCC 3562” value in data set [1] is reported as 160 µg/mL (≈ 112 µM). For the same compound, in data set [2], the “MIC, Escherichia coli NBIMCC K12 407” value came to 160 µg/mL (≈ 112 µM).

Consider `CC[C@H](C)[C@H](NC(=O)[C@H](CCCCN)NC(=O)[C@H](CCN)NC(=O)[C@@H](NC(=O)[C@@H](NC(=O)[C@H](CC(=O)O)NC(=O)[C@H](Cc1ccccc1)NC(=O)[C@H](CC(C)C)NC(=O)CN)[C@@H](C)CC)[C@@H](C)CC)C(=O)N[C@@H](C)C(=O)N[C@@H](CCC(=O)O)C(=O)N[C@@H](CO)C(=O)N[C@@H](Cc1ccccc1)C(N)=O` [EH [Dab]^7, Gly-Leu-Phe-Asp-Ile-Ile-Dab^7-Lys-Ile-Ala-Glu-Ser-Phe-NH2] (H-GLFDII[Dab]KIAESF-NH2), for which, in the data set “in vitro”, the CC50 was determined as 113 ± 5.57 µM. For the same compound, the “PIF (Photo Irritation Factor)” value with BALB 3T3 cells amounted to 1.40. Further, the half-inhibitory concentration (IC50) in the data set with MCF-12F worked out at 92.1 ± 2.12 µM; with MCF-7 (72 h), 74.4 ± 3.29 µM; in the data set with MDA-MB-231 (72 h), 125 ± 4.97 µM. Moreover, the “MBC, Bacillus subtilis NBIMCC 3562” value in data set [1] was determined as 320 µg/mL (≈ 220 µM). In addition, the “MIC, Bacillus subtilis NBIMCC 3562” value in data set [1] is reported as 80 µg/mL (≈ 55.1 µM). Further, in data set [2], the “MIC, Escherichia coli NBIMCC K12 407” value was 80 µg/mL (≈ 55.1 µM).
